Source: US9308195B2, “Non-aqueous taxane formulations and methods of using the same” (Teikoku Pharma USA, Inc., priority 2012, dated 2016)

Test: Solubility of anhydrous docetaxel in PEG 400 or PEG 300
Type: physicochemical
Conditions: per 1 g of PEG 300; ultrasonic dispersion for 5 minutes at 70-80° C.
Protocol: Formulations of anhydrous docetaxel and either PEG 400 or PEG 300 were prepared and mixed using ultrasonic dispersion for 5 minutes at 70-80° C. 1 g of PEG 400 dissolved 25 mg of anhydrous docetaxel. […] 1 g of PEG 300 dissolved 100 mg of anhydrous docetaxel. Accordingly, PEG 300 was able to better solubilize anhydrous docetaxel.

amount of anhydrous docetaxel dissolved by 1 g of PEG 300: ≥ 100 mg
SMILES: CC(=O)O[C@@]12CO[C@@H]1C[C@H](O)[C@@]1(C)C(=O)[C@H](O)C3=C(C)[C@@H](OC(=O)[C@H](O)[C@@H](NC(=O)OC(C)(C)C)c4ccccc4)C[C@@](O)([C@@H](OC(=O)c4ccccc4)[C@H]21)C3(C)C [anhydrous docetaxel, (2R,3S)-N-carboxy-3-phenylisoserine,Ntert-butyl ester, 13-ester with 5β-20-epoxy-1,2α,4,7β,10β,13α-hexahydroxytax-11-en-9-one 4-acetate 2-benzoate]
